Reference: patent US11186572B2, “Bacterial glutaminyl cyclases and inhibitors thereof for use in the treatment of periodontitis” (Fraunhofer-Gesellschaft zur Forderung der Angewandten …, priority 2016, dated 2021)
≈ marks a conversion by molar mass, not a printed value. Entries after “also recorded” stand apart in the source; their conditions may differ. Read-outs that look alike come from different tables or passages of the source.

Assays:
[1] = tested on: bacterial QC (PgQC, PiQC, TfQC); assay: Inhibition of bacterial QC by metal chelators (fluorometric activity assay); format: biochemical, P. gingivalis, P. intermedia, T. forsythia; settings: 250 μM H-Gln-AMC, increasing chelator concentrations, approx. 5 nM bacQC, 30° C.; all three bacterial QC (FIG. 7)
Experimental: The fluorometrically activity assay was carried out as described above, except the presence of 1% (v/v) DMSO in the case of 1,10-phenanthroline or dipicolinic acid. Finally the residual bacQC activity was determined at steady state whereas bacQC without Chelators and +/−1% DMSO served as positive control.
The reaction was initiated by adding approximately 5 nM bacQC. Black bars indicate residual PgQC activity, striped bars represent residual PiQC activity, and white bars display residual TfQC activity. All determinations were carried out at 30° C. as described above.

PgQC = molecular target: T1, PgQC (Porphyromonas gingivalis, UniProt Q7MT37); assay: biochemical; design: species or system P. gingivalis
T1 construct: Ki; RA (average residual QC activity of PgQC); other: c = 1 μM; other: c = 1.5 μM; other: c = 10 μM; other: c = 100 μM; other: c = 12 μM; RA; fused on or other part: N-terminal His tag from pET28a(+), cleaved off by thrombin before the enzymatic characterisation
Experimental: The assay consists of varying concentration of the fluorogenic substrate and 0.5 U pyroglutaminyl aminopeptidase in 50 mM Tris-HCl, 50 mM NaCl at pH 8.0. After 10 minute incubation time at 30° C. reaction was initiated by addition of bacQC to a final volume of 125 μl reaction mixture. […] All determinations were carried out in 96 well microtiter plates (Fisher Scientific) at 30° C. using the FluoStar Optima (BMG Labtech).
For inhibitor testing, the sample composition was the same as described above, except for the addition of the putative inhibitory compound. […] (∘) represents reaction without inhibitor. Determinations were carried out in 50 mM Tris-HCl, 50 mM NaCl pH 8.0 and 1% (v/v) DMSO at 30° C.
RA refers to the average residual QC activity of PgQC measured in the presence of a concentration c of the respective compound. Ki refers to the average Ki values measured as described above, and Std(Ki) refers to the standard deviation of Ki.

P. gingivalis ATCC 33277 = assay: MIC/MBC, cultivation in 2-fold dilution series; format: cell-based; settings: Porphyromonas gingivalis, ATCC33277, P.g. ATCC 33277; for MIC: lowest concentration without visible growth (turbidity); for MBC: no growth of subcultivation or reduction by 99.9%
From the text: (§1) Bacteria expressing PgQC, TfQC and PiQC, namely P. gingivalis ATCC 33277, P. gingivalis M5-1-2, T. forsythia ATCC 42077, and P. intermedia ATCC 25611 were cultivated in the presence of compounds MWT-S-00275, MWT-S-00431, MWT-S-00441 and doxycycline in 2-fold dilution series. […]

P. gingivalis M5-1-2 = assay: MIC/MBC, cultivation in 2-fold dilution series; format: cell-based; settings: Porphyromonas gingivalis, M512, P.g. M5-1-2; for MIC: lowest concentration without visible growth (turbidity); for MBC: no growth of subcultivation or reduction by 99.9%
From the text: as §1

P. intermedia ATCC 25611 = assay: MIC/MBC, cultivation in 2-fold dilution series; format: cell-based; settings: Prevotella intermedia, ATCC25611, P.i. ATCC 25611; for MIC: lowest concentration without visible growth (turbidity); for MBC: no growth of subcultivation or reduction by 99.9%
From the text: as §1

T. forsythia ATCC 42077 = assay: MIC/MBC, cultivation in 2-fold dilution series; format: cell-based; settings: Tannerella forsythia, ATCC42077, T.f. ATCC 42077; for MIC: lowest concentration without visible growth (turbidity); for MBC: no growth of subcultivation or reduction by 99.9%
From the text: as §1

[2] = Ki (average), inhibition of PgQC, H-Gln-AMC, 50 mM Tris-HCl, 50 mM NaCl pH 8.0, 30° C.
[3] = read-out: RA (average residual QC activity of PgQC)
[4] = inhibition of PgQC, H-Gln-AMC, 50 mM Tris-HCl, 50 mM NaCl pH 8.0, 30° C., read-out: Ki (average)

SMILES	inhibitory effect on bacQC activity (residual activity) [1]	Ki (PgQC; [2]) [nM]	remaining activity at 1 µM (PgQC; [3]) [%]	MIC (P. gingivalis ATCC 33277) [µg/mL]	MBC (P. gingivalis ATCC 33277) [µg/mL]	MIC (P. gingivalis M5-1-2) [µg/mL]	MBC (P. gingivalis M5-1-2) [µg/mL]	MIC (P. intermedia ATCC 25611) [µg/mL]	MBC (P. intermedia ATCC 25611) [µg/mL]	MIC (T. forsythia ATCC 42077) [µg/mL]	MBC (T. forsythia ATCC 42077) [µg/mL]	Ki (PgQC; [4]) [nM]	other results
O=C(O)c1cccc(C(=O)O)n1 [dipicolinic acid]	strong inhibitory activity												
c1cnc2c(c1)ccc1cccnc12 [phenanthroline, 1,10-phenanthroline]	strong inhibitory activity; also recorded: inhibited QC activity already at low mM range												
O=C(O)CN(CCN(CC(=O)O)CC(=O)O)CC(=O)O [EDTA]	does not influence bacQC activity												
CC1(C)c2nc[nH]c2CCN1Cc1cc(F)c(F)c(F)c1 [MWT-S-00275, 4,4-Dimethyl-5-[(3,4,5-trifluorophenyl)methyl]-6,7-dihydro-3H-imidazo[4,5-c]pyridine]		143	22	500 (≈ 1.69 mM)	1000 (≈ 3.39 mM)	500 (≈ 1.69 mM)	1000 (≈ 3.39 mM)	500 (≈ 1.69 mM)	500 (≈ 1.69 mM)	250 (≈ 0.847 mM)	250 (≈ 0.847 mM)		
O=C(c1cc(Cl)cc(Cl)c1)N1CCc2[nH]cnc2C1 [MWT-S-00431, (3,5-Dichlorophenyl)(1,4,6,7-tetrahydro-5H-imidazo[4,5-c]pyridin-5-yl)methanone]				1000 (≈ 3.38 mM)	2000 (≈ 6.75 mM)	1000 (≈ 3.38 mM)	2000 (≈ 6.75 mM)	125 (≈ 0.422 mM)	500 (≈ 1.69 mM)	1000 (≈ 3.38 mM)	2000 (≈ 6.75 mM)	100	Ki (PgQC; Ki, Table 3 fit, competitive inhibition, 1% (v/v) DMSO, pH 8.0, 30° C.): 104 nM; Ki (PgQC; Ki, exemplary determination (FIG. 4), 1% (v/v) DMSO, pH 8.0, 30° C.): 104 ± 3.31 nM; remaining activity at 10 µM (PgQC; [3]): 3%
C[C@H]1c2cccc(O)c2C(=O)C2=C(O)[C@]3(O)C(=O)C(C(N)=O)=C(O)[C@@H](N(C)C)[C@@H]3[C@@H](O)[C@@H]21 [Doxy, Doxycycline, reference compound]				≤ 3130	50000 (≈ 113 mM)	≤ 3130		≤ 3130	12500 (≈ 28.1 mM)	≤ 3130	6250 (≈ 14.1 mM)		
COc1cc(Cl)cc(C(=O)N2CCc3[nH]cnc3C2)c1 [MWT-S-00441, (3-Chloro-5-methoxyphenyl)(1,4,6,7-tetrahydro-5H-imidazo[4,5-c]pyridin-5-yl)methanone]			17	1000 (≈ 3.43 mM)	2000 (≈ 6.86 mM)	1000 (≈ 3.43 mM)	> 2000	63 (≈ 0.216 mM)	63 (≈ 0.216 mM)	2000 (≈ 6.86 mM)	2000 (≈ 6.86 mM)	87	
O=C(c1cccc(-c2ccccc2)c1)N1CCc2[nH]cnc2C1 [MWT-S-00433, [1,1′-Biphenyl]-3-yl(1,4,6,7-tetrahydro-5H-imidazo[4,5-c]pyridin-5-yl)methanone]			47									547	
CC1c2nc[nH]c2CCN1Cc1cc(F)c(F)c(F)c1 (stereo not drawn) [MWT-S-00267, 4-Methyl-5-[(3,4,5-trifluorophenyl)methyl]-3,4,6,7-tetrahydro-imidazo[4,5-c]pyridine]		528											remaining activity at 4 µM (PgQC; [3]): 20%
Clc1ccc(CN2CCc3[nH]cnc3C2)cc1 [MWT-S-00421, 5-[(4-Chlorophenyl)methyl]-1,4,6,7-tetrahydroimidazo[4,5-c]pyridine]		540											remaining activity at 10 µM (PgQC; [3]): 11%
